# Experimental data from patent US9096494B2, “Arachidonic acid analogs and methods for analgesic treatment using same” (priority 2009, dated 2015).
# Values joined by “and” are separate entries in the source; they are usually repeats but may differ in a detail not shown here. Equal entries are not always repeated.
# How the values were obtained:
# [1] = Analgesic potency comparison with natural EETs and AM404; settings: in vivo
# Description: Chemically, it is close structural analog of a set of lipid mediators derived from arachidonic acid that the body uses to control pain.
# [2] = target: T1, Serotonin/5-HT1A (Homo sapiens, UniProt P08908); assay: Cerep BioPrint dependence and addiction panel; assay type: binding
# T1 construct: Cerep (contract screen)
# [3] = target: T2, CB2 Cannabinoid agonist (Homo sapiens, UniProt P34972); assay: Cerep BioPrint receptor binding
# T2 construct: Cerep (contract screen)
# T2 sequence (P34972 whole entry): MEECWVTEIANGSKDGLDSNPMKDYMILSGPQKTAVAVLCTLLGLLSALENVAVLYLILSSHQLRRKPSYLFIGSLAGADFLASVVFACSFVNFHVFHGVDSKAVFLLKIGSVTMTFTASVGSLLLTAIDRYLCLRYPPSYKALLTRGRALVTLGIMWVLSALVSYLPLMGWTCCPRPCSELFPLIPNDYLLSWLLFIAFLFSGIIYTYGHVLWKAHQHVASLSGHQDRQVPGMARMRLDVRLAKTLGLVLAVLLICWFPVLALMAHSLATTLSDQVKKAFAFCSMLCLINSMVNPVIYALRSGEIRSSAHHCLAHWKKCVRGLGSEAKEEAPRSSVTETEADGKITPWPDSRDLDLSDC
# Protocol: (§1) For the initial BioPrint screen, a free compound concentration of 10 μM was used, which corresponds to a 2.5 mg/kg bolus dose in a mouse. […] Thus, a 2.5 mg/kg bolus dose would be equivalent to a […] free compound concentration.
# [4] = target: T3, δ- opioid agonist (Homo sapiens, UniProt P41143); assay: Cerep BioPrint receptor binding
# T3 construct: Cerep (contract screen)
# T3 sequence (P41143 whole entry): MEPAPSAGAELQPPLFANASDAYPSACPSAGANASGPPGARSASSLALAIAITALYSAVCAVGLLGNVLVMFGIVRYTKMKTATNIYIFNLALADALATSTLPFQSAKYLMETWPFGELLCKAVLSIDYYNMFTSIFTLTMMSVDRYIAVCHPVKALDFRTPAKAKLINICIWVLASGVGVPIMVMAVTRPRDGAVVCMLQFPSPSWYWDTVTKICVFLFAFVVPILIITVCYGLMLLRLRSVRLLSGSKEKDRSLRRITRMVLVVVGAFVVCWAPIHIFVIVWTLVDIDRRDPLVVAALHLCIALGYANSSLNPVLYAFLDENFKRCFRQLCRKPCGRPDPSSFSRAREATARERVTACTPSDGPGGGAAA
# Protocol: as §1
# [5] = target: T4, CB1 Cannabinoid agonist (Homo sapiens, UniProt P21554); assay: Cerep BioPrint receptor binding
# T4 construct: Cerep (contract screen)
# T4 sequence (P21554 whole entry): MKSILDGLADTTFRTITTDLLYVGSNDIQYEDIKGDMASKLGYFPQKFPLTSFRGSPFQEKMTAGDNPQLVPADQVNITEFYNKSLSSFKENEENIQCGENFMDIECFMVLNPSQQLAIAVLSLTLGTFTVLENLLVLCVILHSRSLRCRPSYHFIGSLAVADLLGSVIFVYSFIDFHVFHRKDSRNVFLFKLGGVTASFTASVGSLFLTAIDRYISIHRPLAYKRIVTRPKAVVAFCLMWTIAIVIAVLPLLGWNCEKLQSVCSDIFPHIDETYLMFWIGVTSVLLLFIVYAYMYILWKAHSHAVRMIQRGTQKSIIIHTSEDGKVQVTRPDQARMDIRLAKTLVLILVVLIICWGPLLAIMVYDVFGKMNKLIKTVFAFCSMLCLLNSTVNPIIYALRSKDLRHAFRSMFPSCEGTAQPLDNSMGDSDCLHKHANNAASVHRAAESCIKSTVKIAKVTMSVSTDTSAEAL
# Protocol: as §1
# [6] = target: T5, κ-opioid agonist (Rattus norvegicus, UniProt P34975); assay: Cerep BioPrint receptor binding
# T5 construct: Cerep (contract screen)
# T5 sequence (P34975 whole entry): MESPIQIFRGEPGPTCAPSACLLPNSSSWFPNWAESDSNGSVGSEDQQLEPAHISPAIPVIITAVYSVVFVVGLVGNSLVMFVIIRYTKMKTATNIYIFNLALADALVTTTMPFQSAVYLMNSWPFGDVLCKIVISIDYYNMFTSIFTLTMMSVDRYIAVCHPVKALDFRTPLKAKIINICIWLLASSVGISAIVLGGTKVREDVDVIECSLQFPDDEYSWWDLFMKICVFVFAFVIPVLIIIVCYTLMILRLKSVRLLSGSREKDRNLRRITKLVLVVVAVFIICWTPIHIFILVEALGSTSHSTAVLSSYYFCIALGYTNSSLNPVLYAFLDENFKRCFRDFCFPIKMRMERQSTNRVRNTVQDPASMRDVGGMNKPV
# Protocol: as §1
# [7] = tested on: GABA/GABAA; assay: Cerep BioPrint dependence and addiction panel; assay type: binding
# [8] = target: T6, Opioid/mu(MOP) (Homo sapiens, UniProt P35372); assay: Cerep BioPrint dependence and addiction panel; assay type: binding
# T6 construct: Cerep (contract screening panel)
# [9] = tested on: Glutamate/AMPA; assay: Cerep BioPrint dependence and addiction panel; assay type: binding
# [10] = target: T7, GABA/GABAB(1b) (Homo sapiens, UniProt Q9UBS5); assay: Cerep BioPrint dependence and addiction panel; assay type: binding
# T7 construct: Cerep (contract screen)
# [11] = target: Dopamine/D1 (Homo sapiens, UniProt P21728); assay: Cerep BioPrint dependence and addiction panel; assay type: binding
# [12] = tested on: TRPV1 vanilloid knockout mice; assay: Analgesic effect in TRPV1 vanilloid knockout mice; assay type: in vivo; settings: TRPV1 vanilloid knockout mice (homozygotes)
# [13] = in vivo; settings: mouse, iv, 10 mg/kg
# [14] = tested on: Sigma/Sigma non selective; assay: Cerep BioPrint dependence and addiction panel; assay type: binding
# [15] = target: Dopamine/D2S (Homo sapiens, UniProt P14416); assay: Cerep BioPrint dependence and addiction panel; assay type: binding
# Dopamine/D2S, sequence (P14416 other isoform, or with tags, fused parts or gaps): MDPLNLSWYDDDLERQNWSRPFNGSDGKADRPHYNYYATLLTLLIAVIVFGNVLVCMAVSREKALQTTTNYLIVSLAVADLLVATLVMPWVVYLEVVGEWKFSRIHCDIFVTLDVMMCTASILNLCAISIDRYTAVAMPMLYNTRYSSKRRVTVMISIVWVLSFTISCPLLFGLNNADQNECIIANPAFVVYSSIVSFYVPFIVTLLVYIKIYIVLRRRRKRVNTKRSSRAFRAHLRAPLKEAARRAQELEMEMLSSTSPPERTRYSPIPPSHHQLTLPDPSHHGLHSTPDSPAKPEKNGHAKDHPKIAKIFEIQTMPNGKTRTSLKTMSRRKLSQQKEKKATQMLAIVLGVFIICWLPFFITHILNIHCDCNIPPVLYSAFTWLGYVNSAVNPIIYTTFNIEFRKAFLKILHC
# [16] = target: T8, TRPV1(VR1) agonist (Rattus norvegicus, UniProt O35433); assay: Cerep BioPrint receptor binding
# T8 construct: Cerep (contract screen)
# T8 sequence (O35433 whole entry): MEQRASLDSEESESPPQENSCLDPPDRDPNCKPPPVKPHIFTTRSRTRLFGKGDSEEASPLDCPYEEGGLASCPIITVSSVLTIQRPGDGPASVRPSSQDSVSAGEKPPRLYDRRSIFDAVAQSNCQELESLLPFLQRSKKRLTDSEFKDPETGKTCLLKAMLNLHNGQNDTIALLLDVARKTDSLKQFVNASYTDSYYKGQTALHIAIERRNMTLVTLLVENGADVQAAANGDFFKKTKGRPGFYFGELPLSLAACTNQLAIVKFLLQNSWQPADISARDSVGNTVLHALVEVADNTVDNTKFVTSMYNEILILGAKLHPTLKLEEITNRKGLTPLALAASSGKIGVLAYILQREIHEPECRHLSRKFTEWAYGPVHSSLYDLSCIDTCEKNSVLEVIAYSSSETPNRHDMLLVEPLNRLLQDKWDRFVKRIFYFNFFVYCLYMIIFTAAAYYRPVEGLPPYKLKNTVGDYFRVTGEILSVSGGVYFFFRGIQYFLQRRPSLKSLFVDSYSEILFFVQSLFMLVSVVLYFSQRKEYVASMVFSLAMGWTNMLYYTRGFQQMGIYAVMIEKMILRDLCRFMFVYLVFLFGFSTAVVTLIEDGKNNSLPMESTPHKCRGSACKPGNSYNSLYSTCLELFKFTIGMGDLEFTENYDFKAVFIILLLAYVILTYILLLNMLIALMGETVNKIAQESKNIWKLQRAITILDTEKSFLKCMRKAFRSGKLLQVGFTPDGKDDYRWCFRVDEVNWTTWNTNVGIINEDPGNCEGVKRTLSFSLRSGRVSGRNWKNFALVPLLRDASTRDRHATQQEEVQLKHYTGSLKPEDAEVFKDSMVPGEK
# [17] = target: CL-Channel (GABA gated) antagonist; assay: Cerep BioPrint receptor binding
# [18] = tested on: dopamine levels; assay: Effect on dopamine levels; settings: compared with Δ9-THC
# [19] = target: T9, Melanocortin/MC4 (Homo sapiens, UniProt P32245); assay: Cerep BioPrint dependence and addiction panel; assay type: binding
# T9 construct: Cerep (contract screen)
# [20] = tested on: CB1 cannabinoid knockout mice; assay: Analgesic effect in CB1 cannabinoid knockout mice; assay type: in vivo; settings: CB1 cannabinoid knockout mice (homozygotes)
# [21] = tested on: mice; assay: Tail-flick assay in mouse; assay type: in vivo; settings: 10 mg/kg intravenous bolus
# Protocol: The tail-flick assay is based on the time measured to reflex withdrawal of the tail in response to a radiant heat source. The maximum exposure time to the radiant heat source is set at 10 seconds. Prior to treatment, a baseline (BL) time measured to tail-flick withdrawal is determined after two exposures to the radiant source separated by a 30 min period. Control mice are intravenously treated with vehicle and test mice are intravenously treated with analgesic test compound. Data of tail-flick withdrawal of treated mice (TM) are calculated as maximum possible effect (MPE), where MPE=(TM−BL)/(10−BL). Tail-flick withdrawal is measured at 5 min, 15 min, 30 mm, and 1 hr. A total of 3-5 mice are used for each time point tested.
# [22] = LC/MS pharmacokinetics of CMX-020 in mice (plasma, brain, liver); settings: 15 min timepoint, 10 mg/kg iv, n=2 individual values
# [23] = target: T10, Serotonin/5HT transporter (Homo sapiens, UniProt P31645); assay: Cerep BioPrint dependence and addiction panel; assay type: binding
# T10 construct: Cerep (contract screening panel)
# T10 sequence (P31645 whole entry): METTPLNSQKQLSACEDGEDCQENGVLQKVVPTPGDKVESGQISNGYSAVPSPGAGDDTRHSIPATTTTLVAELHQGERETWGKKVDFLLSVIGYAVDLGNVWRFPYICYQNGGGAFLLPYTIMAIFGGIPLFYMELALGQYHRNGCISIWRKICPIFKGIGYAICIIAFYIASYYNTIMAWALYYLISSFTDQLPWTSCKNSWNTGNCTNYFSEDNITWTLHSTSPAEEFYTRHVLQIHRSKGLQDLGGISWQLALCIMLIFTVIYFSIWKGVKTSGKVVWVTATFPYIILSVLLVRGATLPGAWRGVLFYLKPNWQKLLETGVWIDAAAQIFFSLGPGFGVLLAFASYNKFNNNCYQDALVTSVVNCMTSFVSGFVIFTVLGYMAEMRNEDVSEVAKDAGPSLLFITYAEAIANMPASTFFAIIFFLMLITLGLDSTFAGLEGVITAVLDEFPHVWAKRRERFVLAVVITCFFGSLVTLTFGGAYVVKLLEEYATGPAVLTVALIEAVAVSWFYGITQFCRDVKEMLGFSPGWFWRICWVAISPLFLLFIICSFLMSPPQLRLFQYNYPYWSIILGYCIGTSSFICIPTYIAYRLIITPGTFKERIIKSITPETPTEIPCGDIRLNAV
# [24] = tested on: plasma or serum proteins; assay: Binding to plasma or serum proteins; assay type: in vitro ADME
# Protocol: as §1
# [25] = target: Dopamine/D3 (Homo sapiens, UniProt P35462); assay: Cerep BioPrint dependence and addiction panel; assay type: binding
# [26] = Solubility in water
# [27] = tested on: ATPase/ATPase(Na+/K+); assay: Cerep BioPrint dependence and addiction panel (enzyme); assay type: biochemical
# [28] = target: T11, MT1(ML1A) agonist-Melatonin (Homo sapiens, UniProt P48039); assay: Cerep BioPrint receptor binding
# T11 construct: Cerep (contract screen)
# T11 sequence (P48039 whole entry): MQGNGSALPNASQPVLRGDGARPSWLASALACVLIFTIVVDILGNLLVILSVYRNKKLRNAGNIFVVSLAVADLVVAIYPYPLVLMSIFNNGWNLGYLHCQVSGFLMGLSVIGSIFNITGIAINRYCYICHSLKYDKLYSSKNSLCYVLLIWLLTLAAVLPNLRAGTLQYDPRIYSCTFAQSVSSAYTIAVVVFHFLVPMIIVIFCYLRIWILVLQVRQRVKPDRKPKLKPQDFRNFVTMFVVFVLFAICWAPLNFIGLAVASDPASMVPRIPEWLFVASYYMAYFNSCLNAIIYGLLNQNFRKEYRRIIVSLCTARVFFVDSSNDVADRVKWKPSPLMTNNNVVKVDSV
# [29] = Antipyretic effect; assay type: in vivo, mice; settings: CMX-020 Injectable Solution
# Protocol: CMX-020 Injectable Solution may also be given to patients during surgery or dental procedures to relieve pain and as an adjunct to an anaesthetic.
# Recordings of body temperature in male mice (30 grams) were achieved using a mouse rectal temperature probe. Baseline was recorded twice for 10 minutes at intervals of 2 minutes with a 15 minute span of no recording.
# [30] = target: T12, Cholecystokinin/CCK2 (Homo sapiens, UniProt P32239); assay: Cerep BioPrint dependence and addiction panel; assay type: binding
# T12 construct: Cerep (contract screen)
# [31] = target: T13, Adenosine/A2A (Homo sapiens, UniProt P29274); assay: Cerep BioPrint dependence and addiction panel; assay type: binding
# T13 construct: Cerep (contract screen)
# [32] = Intravenous analgesia: onset and duration of effect
# [33] = tested on: Dopamine transporter/5HT transporter; assay: Cerep BioPrint dependence and addiction panel; assay type: binding
# [34] = target: T14, Opioid/NOP(ORL1) (Homo sapiens, UniProt P41146); assay: Cerep BioPrint dependence and addiction panel; assay type: binding
# T14 construct: Cerep (contract screening panel)
# T14 sequence (P41146 whole entry, species assumed): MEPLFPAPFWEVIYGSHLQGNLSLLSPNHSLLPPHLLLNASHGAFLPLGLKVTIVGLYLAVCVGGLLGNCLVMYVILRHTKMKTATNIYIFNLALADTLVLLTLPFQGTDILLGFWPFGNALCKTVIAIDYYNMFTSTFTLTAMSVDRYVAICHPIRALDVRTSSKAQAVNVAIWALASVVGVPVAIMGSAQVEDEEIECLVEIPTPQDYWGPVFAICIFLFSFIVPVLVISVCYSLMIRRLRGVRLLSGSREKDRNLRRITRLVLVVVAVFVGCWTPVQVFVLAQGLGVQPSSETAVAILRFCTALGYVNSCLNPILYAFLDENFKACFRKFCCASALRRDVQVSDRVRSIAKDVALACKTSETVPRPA
# [35] = target: T15, Serotonin/5-Ht2A (Homo sapiens, UniProt P28223); assay: Cerep BioPrint dependence and addiction panel; assay type: binding
# T15 construct: Cerep (contract screen)
# [36] = tested on: mice; assay: LD50 established using mice; assay type: in vivo
# Protocol: (§2) LD50 (abbreviation for “Lethal Dose, 50%”) is established using mice. The dose translation between mouse and human is based on body surface area allometric translation. For example, a 1 mg/kg mouse dose is equivalent to a 0.08 mg/kg human dose. For more information on species dose translation see: Reagan-Shaw et. al, FASEB J. 122, 659-661 (2007).
# [37] = LD50 established using mice; assay type: in vivo; settings: in vivo, body surface area translation mouse to human
# Protocol: as §2
# [38] = tested on: Glutamate/PCP; assay: Cerep BioPrint dependence and addiction panel; assay type: binding
# [39] = target: Serotonin/5-HT3 (Homo sapiens, UniProt P46098); assay: Cerep BioPrint dependence and addiction panel; assay type: binding
# Serotonin/5-HT3, sequence (P46098 24-478): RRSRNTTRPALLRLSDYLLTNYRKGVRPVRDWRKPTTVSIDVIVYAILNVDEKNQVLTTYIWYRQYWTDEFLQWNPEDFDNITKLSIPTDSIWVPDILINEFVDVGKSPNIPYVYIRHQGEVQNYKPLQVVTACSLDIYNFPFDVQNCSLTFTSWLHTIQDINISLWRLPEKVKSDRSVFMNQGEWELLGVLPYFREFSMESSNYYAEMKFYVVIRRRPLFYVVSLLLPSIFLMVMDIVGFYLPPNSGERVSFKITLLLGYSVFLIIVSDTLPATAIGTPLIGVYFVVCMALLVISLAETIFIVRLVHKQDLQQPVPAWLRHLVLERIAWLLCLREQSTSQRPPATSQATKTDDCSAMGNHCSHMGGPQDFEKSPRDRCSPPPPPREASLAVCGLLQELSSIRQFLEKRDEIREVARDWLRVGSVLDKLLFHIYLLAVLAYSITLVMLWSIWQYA
# [40] = target: T16, Steroid nuclear/GR (Homo sapiens, UniProt P04150); assay: Cerep BioPrint dependence and addiction panel; assay type: binding
# T16 construct: Cerep (contract screening panel)
# [41] = target: PPRA-Peroxisome proliferator-activated (Homo sapiens, UniProt P37231); assay: Cerep BioPrint receptor binding
# [42] = target: T17, Dopamine/dopamine transporter (Homo sapiens, UniProt Q01959); assay: Cerep BioPrint dependence and addiction panel; assay type: binding
# T17 construct: Cerep (contract screening panel)
# [43] = target: T18, A3 agonist-Adenosine A3 (Homo sapiens, UniProt P0DMS8); assay: Cerep BioPrint receptor binding
# T18 construct: Cerep (contract screen)
# T18 sequence (P0DMS8 whole entry): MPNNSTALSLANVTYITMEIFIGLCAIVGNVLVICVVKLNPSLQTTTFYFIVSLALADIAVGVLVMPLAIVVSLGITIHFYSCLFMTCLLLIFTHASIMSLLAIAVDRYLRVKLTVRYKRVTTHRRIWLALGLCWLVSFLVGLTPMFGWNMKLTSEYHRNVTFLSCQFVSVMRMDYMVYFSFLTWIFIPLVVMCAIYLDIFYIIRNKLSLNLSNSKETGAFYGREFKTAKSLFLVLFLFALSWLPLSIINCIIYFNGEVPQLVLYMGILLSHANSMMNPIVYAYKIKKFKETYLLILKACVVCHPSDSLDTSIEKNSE
# [44] = tested on: mice; assay: Writhing assay in mouse (bolus and continuous infusion); assay type: in vivo
# [45] = CMX-020 Injectable Emulsion, from mouse writhing assay
# [46] = continuous infusion, from mouse writhing assay
smiles,measurement,setting,value
"CCCCCC1OC1C/C=C\C/C=C\C/C=C\CCCC(=O)O (stereo not drawn) [14,15-EET, 14,15-EET (epoxyeicosatrienoic acid), reference compound]",analgesic potency relative to natural EETs,[1],most potent analgesic of the natural EETs
CCCCCC(=O)N(CC/C=C\C/C=C\C/C=C\CCCC(=O)NC1CC1)C(C)C [CMX-020],% Inhibition @10 uM,[2],26%
same,IC50,[3],0.15 µM
same,inhibition at 10 µM,"[3]; CB2 Cannabinoid agonist, 10 uM",98%
same,IC50,[4],13 µM
same,inhibition at 10 µM,"[4]; δ- opioid agonist, 10 uM",52%
same,IC50,[5],0.021 µM
same,inhibition at 10 µM,"[5]; CB1 Cannabinoid agonist, 10 uM",98%
same,IC50,[6],4.7 µM
same,inhibition at 10 µM,"[6]; κ-opioid agonist, 10 uM",61%
same,% Inhibition @10 uM,[7],11%
same,inhibition at 10 µM,[8],26%
same,% Inhibition @10 uM,[9],9%
same,inhibition at 10 µM,[10],-6%
same,% Inhibition @10 uM,[11],7%
same,analgesic effect in knockout mice,[12],altered
same,concentration at 15 min,[13]; brain,704 ng/g
same,concentration at 60 min,[13]; brain,< 20 ng/g
same,concentration at 15 min,[13]; liver,170 ng/g
same,concentration at 60 min,[13]; liver,< 20 ng/g
same,C0,[13]; plasma,~14000 ng/mL and ~33 µM
same,half-life,[13]; plasma,~17 min
same,analgesic potency in side-by-side comparison with AM404,[1],more potent analgesic without the toxic effects
same,% Inhibition @10 uM,[14],31%
same,% Inhibition @10 uM,[15],8%
same,IC50,[16],7.5 µM
same,% Inhibition @10 uM,"[16]; TRPV1(VR1) agonist, 10 uM",59%
same,IC50,[17],5.1 µM
same,effect on dopamine levels,[18],does not elevate dopamine levels
same,inhibition at 10 µM,[19],0%
same,analgesic effect in knockout mice,[20],almost completely blocked
same,"time to maximal (full) analgesic response, tail-flick",[21],5 min
same,amount present in brain,[22],843 ng/g tissue
same,amount present in liver,[22],211 ng/g tissue
same,inhibition at 10 µM,[23],10%
same,fraction unbound,[24],~0.01
same,% Inhibition @10 uM,[25],25%
same,solubility in water,[26],very slightly soluble
same,% Inhibition @10 uM,[27],12%
same,IC50,[28],1.2 µM
same,inhibition at 10 µM,"[28]; MT1(ML1A) agonist-Melatonin, 10 uM",88%
same,duration of the antipyretic effect after ending administration,[29],at least 2 hours
same,time to fever reduction after the start of administration,[29],≤ 30 min
same,inhibition at 10 µM,[30],-27%
same,inhibition at 10 µM,[31],7%
same,time to peak effect,[32]; animal tests,within minutes
same,time for which sustained levels of analgesia can be maintained,[32]; continuous infusion,≥ 48 h
same,onset of analgesia after intravenous bolus injection or infusion,[32]; from the start of injection,3 to 5 min
same,half-time of the blood-brain equilibration,[32]; intravenous,1 to 3 min
same,duration of analgesic effect from bolus injection,[32]; intravenous bolus,20 to 30 min and 20 to 25 min
same,% Inhibition @10 uM,[33],15%
same,inhibition at 10 µM,[34],5%
same,inhibition at 10 µM,[35],29%
same,"LD50 CMX-020 Doses, Maintenance",[36]; body surface area translation mouse to human,6.4 mg/kg/h
same,"LD50 CMX-020 Doses, Bolus",[36]; for a 70 kg human,170 mg
same,"LD50 CMX-020 Doses, Maintenance",[36]; for a 70 kg human,450 mg/h
same,LD50,[37],2.4 mg/kg
same,% Inhibition @10 uM,[38],−6%
same,% Inhibition @10 uM,[39],−1%
same,inhibition at 10 µM,[40],9%
same,inhibition at 10 µM,[41],58%
same,inhibition at 10 µM,[42],15%
same,IC50,[43],2.6 µM
same,inhibition at 10 µM,"[43]; A3 agonist-Adenosine A3, 10 uM",64%
same,"continuous infusion dose producing roughly the same level of analgesia (roughly 50% MPE), writhing assay","[44]; 24 hour infusion by Alzet pump, measured at 3 hours and 20 hours, preliminary",2 mg/kg/h
same,"analgesic response compared with Perfalgan 12.5 mg/kg, writhing assay",[44]; CMX-020 0.05 mg/kg,higher analgesic response than Perfalgan
same,"Analgesic Equivalent to Acetaminophen 2x, Bolus dose",[44]; [45],0.02 mg/kg
same,"Analgesic Equivalent to Acetaminophen 3x, Bolus dose",[44]; [45],0.04 mg/kg
same,time over which analgesic levels are sustained by continuous infusion,[44]; continuous infusion in mice,24 h
same,"Analgesic Equivalent to Acetaminophen 1x, Maintenance dose",[44]; [46],0.08 mg/kg/h
same,"Analgesic Equivalent to Acetaminophen 2x, Maintenance dose",[44]; [46],0.16 mg/kg/h
same,"Analgesic Equivalent to Acetaminophen 3x, Maintenance dose",[44]; [46],0.32 mg/kg/h
same,"Analgesic Equivalent to Acetaminophen 1x, Bolus dose",[44]; for a 70 kg human,0.6 mg
same,"Analgesic Equivalent to Acetaminophen 1x, Maintenance dose",[44]; for a 70 kg human,6 mg/h
same,"Analgesic Equivalent to Acetaminophen 2x, Bolus dose",[44]; for a 70 kg human,1.4 mg
same,"Analgesic Equivalent to Acetaminophen 2x, Maintenance dose",[44]; for a 70 kg human,11 mg/h
same,"Analgesic Equivalent to Acetaminophen 3x, Bolus dose",[44]; for a 70 kg human,2.8 mg
same,"Analgesic Equivalent to Acetaminophen 3x, Maintenance dose",[44]; for a 70 kg human,23 mg/h
same,"dose achieving 100% MPE, writhing assay",[44]; intravenous bolus,approximately 0.5 mg/kg
same,dose dependence of the level of analgesia,[44]; mouse writhing assay,dose dependent
same,"Analgesic Equivalent to Acetaminophen 1x, Bolus dose","[44]; mouse, in vivo, iv",0.01 mg/kg
